Values joined by “and” are separate entries in the source; they are usually repeats but may differ in a detail not shown here. Equal entries are not always repeated.
Columns and labels:
Ghrelin receptor (GHS) = Ghrelin receptor (GHS) (Homo sapiens, UniProt Q92847); test: Receptor panel binding; conditions: read-out: Inhibition at 10 µM
Procedure: Cellular Aβ release assays were done in CHO cells stably transfected with human wild‐type and human APP were done as described (Neumann et al, 2015). Determinations of logD, pKa, and binding to brain homogenates were done internally at Novartis, Basel. Plasma protein binding was determined by equilibrium dialysis using diluted plasma from the corresponding species. MDR‐1‐MDCK cells were obtained from Prof. A. Berns, Netherlands Cancer Institute, Amsterdam NL, and bi‐directional transport measurements were done as described (Rueeger et al, 2011). Receptor binding assays were done against an internal receptor panel and externally at Ricerca Biosciences, Peitou, Taiwan. In vitro binding and cellular patch clamp assays for hERG were done at Preclinical Safety, Novartis, Basel.

[1] = test system: healthy participants ≥ 60 years; test: Adverse events after single dose (Appendix Table S5); assay type: in vivo, human
Excerpt: (§1) For further details, see the Appendix Table S10 in Appendix and the accompanying clinical protocols synopsis (Appendix Table S11).
(§2) Appendix Table S3. Overview of completed clinical studies with CNP520
(§3) Study description Population No. of Participants Dose/Frequency […]
(§4) First-in-human, randomized, 18-55 yrs 38 / 14 Single dose (10, 30, 90, […]
(§5) controlled, single and multiple CNP520 vs placebo) ascending oral dose study to Single dose (10, 90, 300,

[2] = test system: healthy participants ≥ 60 years; test: Adverse events after once-daily dosing over two weeks (Appendix Table S7); assay type: in vivo, human
Excerpt: as §1, §2, §3, §4, §5

[3] = test system: healthy participants ≥ 60 years; test: as above; assay type: in vivo, human; remark: listed apart in the source
CSF Aβ40 = test: Human CSF Aβ40, Phase IIa study of 3-month duration; assay type: in vivo; conditions: for reduction in CSF Aβ40 concentrations: 3 months, mean ± SEM
Excerpt: All study participants underwent CSF sampling at baseline and at the end of treatment; in addition, we collected CSF at a number of intermediate time points (n = 2–7/time point).
CSF Aβ38, Aβ40, Aβ42, sAPPα, and sAPPβ were quantified in human CSF with 0.2% (v/v) Tween®‐20 using validated sandwich‐based multiplexed electrochemiluminescence methods (MesoScale Discovery, […], MD, USA). […]
Secondary • To assess the change from baseline of CSF Aβ concentrations (Aβ1-
Objectives 38; Aβ1-40; Aβ1-42) in healthy elderly subjects over 13 weeks

Ghrelin receptor (GHS), sequence (Q92847 whole entry): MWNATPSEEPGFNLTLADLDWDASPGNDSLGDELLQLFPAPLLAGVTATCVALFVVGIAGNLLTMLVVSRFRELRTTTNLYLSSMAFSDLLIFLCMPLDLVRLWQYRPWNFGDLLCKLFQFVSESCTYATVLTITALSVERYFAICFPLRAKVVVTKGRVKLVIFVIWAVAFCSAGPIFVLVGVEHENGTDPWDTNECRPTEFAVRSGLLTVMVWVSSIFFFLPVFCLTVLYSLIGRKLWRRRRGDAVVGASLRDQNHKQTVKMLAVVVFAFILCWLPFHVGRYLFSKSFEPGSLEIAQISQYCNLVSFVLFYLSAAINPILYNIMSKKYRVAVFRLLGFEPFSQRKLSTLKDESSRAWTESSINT

## C[C@@]1(c2nc(NC(=O)c3ncc(C(F)(F)F)cc3Cl)ccc2F)CO[C@@](C)(C(F)(F)F)C(N)=N1 [CNP520]
Ghrelin receptor (GHS)
  inhibition at 10 µM: 79%
[1]; single dose 10 mg, N = 6
  AE incidence: Ear and labyrinth disorders: 0 (0.0) n (%)
  AE incidence: Eye disorders: 0 (0.0) n (%)
  AE incidence: Gastrointestinal disorders: 1 (16.7) n (%)
  AE incidence: General disorders and administration site conditions: 1 (16.7) n (%)
  AE incidence: Infections and infestations: 0 (0.0) n (%)
  AE incidence: Injury, poisoning and procedural complications: 0 (0.0) n (%)
  AE incidence: Metabolism and nutrition disorders: 1 (16.7) n (%)
  AE incidence: Nervous system disorders: 2 (33.3) n (%)
  AE incidence: Psychiatric disorders: 0 (0.0) n (%)
  AE incidence: Respiratory, thoracic and mediastinal disorders: 0 (0.0) n (%)
  AE incidence: Vascular disorders: 0 (0.0) n (%)
  Participants with at least one AE: 5 (83.3) n (%)
[1]; single dose 90 mg, N = 6
  AE incidence: Ear and labyrinth disorders: 0 (0.0) n (%)
  AE incidence: Eye disorders: 1 (16.7) n (%)
  AE incidence: Gastrointestinal disorders: 0 (0.0) n (%)
  AE incidence: General disorders and administration site conditions: 0 (0.0) n (%)
  AE incidence: Infections and infestations: 0 (0.0) n (%)
  AE incidence: Injury, poisoning and procedural complications: 0 (0.0) n (%)
  AE incidence: Metabolism and nutrition disorders: 0 (0.0) n (%)
  AE incidence: Nervous system disorders: 1 (16.7) n (%)
  AE incidence: Psychiatric disorders: 1 (16.7) n (%)
  AE incidence: Respiratory, thoracic and mediastinal disorders: 0 (0.0) n (%)
  AE incidence: Vascular disorders: 1 (16.7) n (%)
  Participants with at least one AE: 3 (50.0) n (%)
[1]; single dose 300 mg, N = 8
  AE incidence: Ear and labyrinth disorders: 1 (12.5) n (%)
  AE incidence: Eye disorders: 0 (0.0) n (%)
  AE incidence: Gastrointestinal disorders: 0 (0.0) n (%)
  AE incidence: General disorders and administration site conditions: 0 (0.0) n (%)
  AE incidence: Infections and infestations: 0 (0.0) n (%)
  AE incidence: Injury, poisoning and procedural complications: 0 (0.0) n (%)
  AE incidence: Metabolism and nutrition disorders: 0 (0.0) n (%)
  AE incidence: Nervous system disorders: 2 (25.0) n (%)
  AE incidence: Psychiatric disorders: 0 (0.0) n (%)
  AE incidence: Respiratory, thoracic and mediastinal disorders: 0 (0.0) n (%)
  AE incidence: Vascular disorders: 0 (0.0) n (%)
  Participants with at least one AE: 6 (75.0) n (%)
[1]; single dose 750 mg, N = 9
  AE incidence: Ear and labyrinth disorders: 0 (0.0) n (%)
  AE incidence: Eye disorders: 0 (0.0) n (%)
  AE incidence: Gastrointestinal disorders: 2 (22.2) n (%)
  AE incidence: General disorders and administration site conditions: 1 (11.1) n (%)
  AE incidence: Infections and infestations: 0 (0.0) n (%)
  AE incidence: Injury, poisoning and procedural complications: 3 (33.3) n (%)
  AE incidence: Metabolism and nutrition disorders: 0 (0.0) n (%)
  AE incidence: Nervous system disorders: 3 (33.3) n (%)
  AE incidence: Psychiatric disorders: 0 (0.0) n (%)
  AE incidence: Respiratory, thoracic and mediastinal disorders: 0 (0.0) n (%)
  AE incidence: Vascular disorders: 0 (0.0) n (%)
  Participants with at least one AE: 8 (88.9) n (%)
[2]; 10 mg once daily, N = 9
  AE incidence: Respiratory, thoracic and mediastinal disorders: 1 (11.1) n (%)
  Participants with any AE(s): 6 (66.7) n (%)
[2]; 30 mg once daily, N = 9
  AE incidence: Renal and urinary disorders: 0 (0.0) n (%)
[2]; 300 mg once daily, N = 8
  AE incidence: Ear and labyrinth disorders: 0 (0.0) n (%)
[3]; 10 mg once daily, N = 9
  AE incidence: Ear and labyrinth disorders: 0 (0.0) n (%)
  AE incidence: Eye disorders: 1 (11.1) n (%)
  AE incidence: Gastrointestinal disorders: 3 (33.3) n (%)
  AE incidence: General disorders and administration site conditions: 0 (0.0) n (%)
  AE incidence: Infections and infestations: 2 (22.2) n (%)
  AE incidence: Metabolism and nutrition disorders: 0 (0.0) n (%)
  AE incidence: Nervous system disorders: 4 (44.4) n (%)
  AE incidence: Psychiatric disorders: 1 (11.1) n (%)
  AE incidence: Renal and urinary disorders: 0 (0.0) n (%)
  AE incidence: Skin and subcutaneous tissue disorders: 0 (0.0) n (%)
[3]; 30 mg once daily, N = 9
  AE incidence: Ear and labyrinth disorders: 1 (11.1) n (%)
  AE incidence: Eye disorders: 0 (0.0) n (%)
  AE incidence: Gastrointestinal disorders: 2 (22.2) n (%)
  AE incidence: General disorders and administration site conditions: 1 (11.1) n (%)
  AE incidence: Infections and infestations: 2 (22.2) n (%)
  AE incidence: Metabolism and nutrition disorders: 0 (0.0) n (%)
  AE incidence: Nervous system disorders: 0 (0.0) n (%)
  AE incidence: Psychiatric disorders: 0 (0.0) n (%)
  AE incidence: Respiratory, thoracic and mediastinal disorders: 0 (0.0) n (%)
  AE incidence: Skin and subcutaneous tissue disorders: 0 (0.0) n (%)
  Participants with any AE(s): 5 (55.6) n (%)
[3]; 90 mg once daily, N = 9
  AE incidence: Ear and labyrinth disorders: 0 (0.0) n (%)
  AE incidence: Eye disorders: 1 (11.1) n (%)
  AE incidence: Gastrointestinal disorders: 3 (33.3) n (%)
  AE incidence: General disorders and administration site conditions: 0 (0.0) n (%)
  AE incidence: Infections and infestations: 2 (22.2) n (%)
  AE incidence: Metabolism and nutrition disorders: 0 (0.0) n (%)
  AE incidence: Nervous system disorders: 1 (11.1) n (%)
  AE incidence: Psychiatric disorders: 0 (0.0) n (%)
  AE incidence: Renal and urinary disorders: 1 (11.1) n (%)
  AE incidence: Respiratory, thoracic and mediastinal disorders: 1 (11.1) n (%)
  AE incidence: Skin and subcutaneous tissue disorders: 0 (0.0) n (%)
  Participants with any AE(s): 6 (66.7) n (%)
[3]; 300 mg once daily, N = 8
  AE incidence: Eye disorders: 0 (0.0) n (%)
  AE incidence: Gastrointestinal disorders: 2 (25.0) n (%)
  AE incidence: General disorders and administration site conditions: 1 (12.5) n (%)
  AE incidence: Infections and infestations: 0 (0.0) n (%)
  AE incidence: Metabolism and nutrition disorders: 2 (25.0) n (%)
  AE incidence: Nervous system disorders: 3 (37.5) n (%)
  AE incidence: Psychiatric disorders: 0 (0.0) n (%)
  AE incidence: Renal and urinary disorders: 1 (12.5) n (%)
  AE incidence: Respiratory, thoracic and mediastinal disorders: 0 (0.0) n (%)
  AE incidence: Skin and subcutaneous tissue disorders: 2 (25.0) n (%)
  Participants with any AE(s): 6 (75.0) n (%)
CSF Aβ40; 2-mg daily dose
  reduction in CSF Aβ40 concentrations: 22.6 ± 2.1%
CSF Aβ40; 85-mg daily dose
  reduction in CSF Aβ40 concentrations: 90.7 ± 0.37%
CSF Aβ40; corrected for plasma protein binding, human plasma
  ED50(free): 3.3 nM
CSF Aβ40; human plasma, Phase IIa
  ED50: total plasma CNP520 concentration at fifty percent reduction of CSF Aβ40: 37.5 ± 2.9 ng/ml and 73.5 ± 5.8 nM

Reference: PMC6220303 (EMBO Molecular Medicine, 2018)
